Reference: patent US8952024B2, “Herbicidal pyrimidone derivatives” (E I du Pont de Nemours and Company, priority 2009, dated 2015)

Tests used:
Assay in all cases: Test D pre-/postemergence plant response
Type in all cases: in vivo
[1] = system: green foxtail (Setaria viridis)
Summary of the method: (§1)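 Pre + post applications; loam/sand soil; solvent + surfactant vehicle; post-em plants 1- to 4-leaf (2–18 cm); greenhouse 14–21 d; visual score 0 (none) to 100 (full control) vs untreated.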

[2] = system: ragweed (common ragweed, Ambrosia elatior)
Summary of the method: as §1

[3] = system: barnyardgrass (Echinochloa crus-galli)
Summary of the method: as §1

[4] = system: large crabgrass (Digitaria sanguinalis)
Summary of the method: as §1

[5] = system: dallisgrass (Paspalum dilatatum)
Summary of the method: as §1

[6] = system: purslane (common purslane, Portulaca oleracea)
Summary of the method: as §1

[7] = system: sowthistle (common sowthistle, Sonchus oleraceous)
Summary of the method: as §1

[8] = system: morningglory (pitted morningglory, Ipomoea lacunosa)
Summary of the method: as §1

[9] = system: nutsedge (purple nutsedge, Cyperus rotundus)
Summary of the method: as §1

[10] = system: kochia (Kochia scoparia)
Summary of the method: as §1

[11] = system: itchgrass (Rottboellia cochinchinensis)
Summary of the method: as §1

[12] = system: goosegrass (Eleusine indica)
Summary of the method: as §1

[13] = system: johnsongrass (Sorghum halepense)
Summary of the method: as §1

[14] = system: chickweed (common chickweed, Stellaria media); conditions: Postemergence
Summary of the method: as §1

[15] = system: prickly sida (Sida spinosa)
Summary of the method: as §1

[16] = system: bluegrass (annual bluegrass, Poa annua)
Summary of the method: as §1

[17] = Postemergence, 16 g ai/ha, scale 0 to 100
[18] = Postemergence, 31 g ai/ha, scale 0 to 100
[19] = Postemergence, 125 g ai/ha, scale 0 to 100 (0 no effect, 100 complete control)
[20] = Postemergence, 62 g ai/ha, scale 0 to 100 (0 no effect, 100 complete control)
[21] = Preemergence, 16 g ai/ha, scale 0 to 100, 0 no effect, 100 complete control
[22] = Preemergence, 31 g ai/ha, scale 0 to 100 (0 no effect, 100 complete control)
[23] = Preemergence, 62 g ai/ha, scale 0 to 100
[24] = Preemergence, 125 g ai/ha, scale 0 to 100
[25] = Postemergence, 31 g ai/ha, scale 0 to 100 (0 no effect, 100 complete control)
[26] = 125 g ai/ha, scale 0 to 100 (0 no effect, 100 complete control)
[27] = 62 g ai/ha, scale 0 to 100 (0 no effect, 100 complete control)
[28] = Postemergence, 250 g ai/ha, scale 0 to 100 (0 no effect, 100 complete control)

SMILES: O=C1CCCC(O)=C1C(=O)c1cnc(-c2ccccc2)n(C2CCCCC2)c1=O [Compound 128, 3-cyclohexyl-5-[(2-hydroxy-6-oxo-1-cyclohexen-1-yl)carbonyl]-2-phenyl-4(3H)-pyrimidinone]
- Plant response rating, Foxtail, Green [1, 17]: 25
- Plant response rating, Foxtail, Green [1, 18]: 40
- Plant response rating, Foxtail, Green [1, 19]: 70
- Plant response rating, Foxtail, Green [1, 20]: 65
- Plant response rating, Foxtail, Green [1, 21]: 0
- Plant response rating, Foxtail, Green [1, 22]: 0
- Plant response rating, Foxtail, Green [1, 23]: 0
- Plant response rating, Foxtail, Green [1, 24]: 0
- Plant response rating, Ragweed [2, 18]: 75
- Plant response rating, Ragweed [2, 19]: 90
- Plant response rating, Ragweed [2, 20]: 90
- Plant response rating, Ragweed [2, 21]: 0
- Plant response rating, Ragweed [2, 22]: 75
- Plant response rating, Ragweed [2, 24]: 100
- Plant response rating, Barnyardgrass [3, 17]: 35
- Plant response rating, Barnyardgrass [3, 25]: 70
- Plant response rating, Barnyardgrass [3, 19]: 90
- Plant response rating, Barnyardgrass [3, 20]: 70
- Plant response rating, Barnyardgrass [3, 21]: 0
- Plant response rating, Barnyardgrass [3, 22]: 0
- Plant response rating, Barnyardgrass [3, 23]: 5
- Plant response rating, Barnyardgrass [3, 24]: 15
- Plant response rating, Crabgrass, Large [4, 17]: 40
- Plant response rating, Crabgrass, Large [4, 18]: 50
- Plant response rating, Crabgrass, Large [4, 19]: 70
- Plant response rating, Crabgrass, Large [4, 20]: 60
- Plant response rating, Crabgrass, Large [4, 21]: 0
- Plant response rating, Crabgrass, Large [4, 22]: 25
- Plant response rating, Crabgrass, Large [4, 23]: 60
- Plant response rating, Dallisgrass [5, 17]: 10
- Plant response rating, Dallisgrass [5, 18]: 20
- Plant response rating, Dallisgrass [5, 19]: 60
- Plant response rating, Dallisgrass [5, 20]: 30
- Plant response rating, Dallisgrass [5, 21]: 0
- Plant response rating, Dallisgrass [5, 22]: 20
- Plant response rating, Dallisgrass [5, 23]: 65
- Plant response rating, Dallisgrass [5, 24]: 98
- Plant response rating, Purslane [6, 17]: 30
- Plant response rating, Purslane [6, 18]: 30
- Plant response rating, Purslane [6, 19]: 50
- Plant response rating, Purslane [6, 20]: 30
- Plant response rating, Purslane [6, 21]: 0
- Plant response rating, Purslane [6, 22]: 0
- Plant response rating, Purslane [6, 23]: 100
- Plant response rating, Purslane [6, 24]: 100
- Plant response rating, Sowthistle [7, 17]: 100
- Plant response rating, Sowthistle [7, 18]: 100
- Plant response rating, Sowthistle [7, 19]: 100
- Plant response rating, Sowthistle [7, 20]: 100
- Plant response rating, Sowthistle [7, 21]: 80
- Plant response rating, Sowthistle [7, 22]: 80
- Plant response rating, Sowthistle [7, 24]: 100
- Plant response rating, Morningglory [8, 17]: 65
- Plant response rating, Morningglory [8, 18]: 65
- Plant response rating, Morningglory [8, 19]: 70
- Plant response rating, Morningglory [8, 20]: 70
- Plant response rating, Morningglory [8, 22]: 0
- Plant response rating, Morningglory [8, 23]: 0
- Plant response rating, Morningglory [8, 24]: 90
- Plant response rating, Nutsedge, Purple [9, 17]: 0
- Plant response rating, Nutsedge, Purple [9, 18]: 10
- Plant response rating, Nutsedge, Purple [9, 19]: 50
- Plant response rating, Nutsedge, Purple [9, 20]: 35
- Plant response rating, Nutsedge, Purple [9, 21]: 0
- Plant response rating, Nutsedge, Purple [9, 22]: 0
- Plant response rating, Nutsedge, Purple [9, 23]: 0
- Plant response rating, Nutsedge, Purple [9, 24]: 70
- Plant response rating, Kochia [10, 17]: 20
- Plant response rating, Kochia [10, 18]: 30
- Plant response rating, Kochia [10, 19]: 40
- Plant response rating, Kochia [10, 20]: 30
- Plant response rating, Kochia [10, 21]: 0
- Plant response rating, Kochia [10, 22]: 0
- Plant response rating, Kochia [10, 23]: 50
- Plant response rating, Kochia [10, 24]: 50
- Plant response rating, Itchgrass [11, 17]: 0
- Plant response rating, Itchgrass [11, 18]: 40
- Plant response rating, Itchgrass [11, 19]: 65
- Plant response rating, Itchgrass [11, 20]: 40
- Plant response rating, Itchgrass [11, 21]: 0
- Plant response rating, Itchgrass [11, 22]: 0
- Plant response rating, Itchgrass [11, 23]: 0
- Plant response rating, Itchgrass [11, 24]: 20
- Plant response rating, Goosegrass [12, 17]: 35
- Plant response rating, Goosegrass [12, 18]: 40
- Plant response rating, Goosegrass [12, 19]: 70
- Plant response rating, Goosegrass [12, 20]: 65
- Plant response rating, Goosegrass [12, 21]: 0
- Plant response rating, Goosegrass [12, 22]: 5
- Plant response rating, Goosegrass [12, 23]: 65
- Plant response rating, Goosegrass [12, 24]: 90
- Plant response rating, Johnsongrass [13, 17]: 35
- Plant response rating, Johnsongrass [13, 18]: 40
- Plant response rating, Johnsongrass [13, 19]: 65
- Plant response rating, Johnsongrass [13, 20]: 50
- Plant response rating, Johnsongrass [13, 21]: 0
- Plant response rating, Johnsongrass [13, 22]: 0
- Plant response rating, Johnsongrass [13, 23]: 15
- Plant response rating, Johnsongrass [13, 24]: 65
- Plant response rating, Chickweed ([14]; 16 g ai/ha, scale 0 to 100): 60
- Plant response rating, Chickweed [14, 26]: 70
- Plant response rating, Chickweed [14, 27]: 65
- Plant response rating, Prickly Sida [15, 17]: 50
- Plant response rating, Prickly Sida [15, 18]: 60
- Plant response rating, Prickly Sida [15, 19]: 80
- Plant response rating, Prickly Sida [15, 20]: 65
- Plant response rating, Prickly Sida [15, 21]: 0
- Plant response rating, Prickly Sida [15, 22]: 0
- Plant response rating, Prickly Sida [15, 23]: 25
- Plant response rating, Prickly Sida [15, 24]: 30
- Plant response rating, Bluegrass [16, 17]: 0
- Plant response rating, Bluegrass [16, 25]: 0
- Plant response rating, Bluegrass [16, 19]: 0
- Plant response rating, Bluegrass [16, 20]: 0
- Plant response rating, Bluegrass [16, 21]: 0
- Plant response rating, Bluegrass [16, 22]: 0
- Plant response rating, Bluegrass [16, 23]: 25
- Plant response rating, Bluegrass [16, 24]: 25

SMILES: CCCn1c(-c2ccccc2)ncc(C(=O)C2=C(O)C3CCC(C3)C2=O)c1=O (stereo not drawn) [Compound 226]
- Plant response rating, Foxtail, Green [1, 19]: 80
- Plant response rating, Foxtail, Green [1, 28]: 98
- Plant response rating, Foxtail, Green [1, 20]: 70
- Plant response rating, Ragweed [2, 19]: 90
- Plant response rating, Ragweed [2, 28]: 98
- Plant response rating, Ragweed [2, 20]: 90
- Plant response rating, Barnyardgrass [3, 25]: 85
- Plant response rating, Barnyardgrass [3, 19]: 95
- Plant response rating, Barnyardgrass [3, 28]: 95
- Plant response rating, Barnyardgrass [3, 20]: 85
- Plant response rating, Crabgrass, Large [4, 19]: 75
- Plant response rating, Crabgrass, Large [4, 28]: 85
- Plant response rating, Crabgrass, Large [4, 20]: 75
- Plant response rating, Dallisgrass [5, 19]: 30
- Plant response rating, Dallisgrass [5, 28]: 35
- Plant response rating, Dallisgrass [5, 20]: 20
- Plant response rating, Purslane [6, 19]: 65
- Plant response rating, Purslane [6, 28]: 70
- Plant response rating, Purslane [6, 20]: 50
- Plant response rating, Sowthistle [7, 19]: 98
- Plant response rating, Sowthistle [7, 28]: 98
- Plant response rating, Sowthistle [7, 20]: 98
- Plant response rating, Morningglory [8, 19]: 70
- Plant response rating, Morningglory [8, 28]: 80
- Plant response rating, Morningglory [8, 20]: 70
- Plant response rating, Nutsedge, Purple [9, 19]: 0
- Plant response rating, Nutsedge, Purple [9, 28]: 5
- Plant response rating, Nutsedge, Purple [9, 20]: 0
- Plant response rating, Kochia [10, 19]: 70
- Plant response rating, Kochia [10, 28]: 70
- Plant response rating, Kochia [10, 20]: 60
- Plant response rating, Itchgrass [11, 19]: 70
- Plant response rating, Itchgrass [11, 28]: 90
- Plant response rating, Itchgrass [11, 20]: 70
- Plant response rating, Goosegrass [12, 19]: 70
- Plant response rating, Goosegrass [12, 28]: 75
- Plant response rating, Goosegrass [12, 20]: 70
- Plant response rating, Johnsongrass [13, 19]: 80
- Plant response rating, Johnsongrass [13, 28]: 90
- Plant response rating, Johnsongrass [13, 20]: 80
- Plant response rating, Chickweed [14, 26]: 35
- Plant response rating, Chickweed ([14]; 250 g ai/ha, scale 0 to 100 (0 no effect, 100 complete control)): 85
- Plant response rating, Chickweed [14, 27]: 35
- Plant response rating, Prickly Sida [15, 19]: 70
- Plant response rating, Prickly Sida [15, 28]: 75
- Plant response rating, Prickly Sida [15, 20]: 65
- Plant response rating, Bluegrass [16, 25]: 0
- Plant response rating, Bluegrass [16, 19]: 10
- Plant response rating, Bluegrass [16, 28]: 30
- Plant response rating, Bluegrass [16, 20]: 10
